The source of these data is US5929039A, “Method for treating cardiac dysfunction and pharmaceutical compositions useful therefor” (Baker Medical Research Institute, priority 1993, dated 1999).

Where two headings read alike, the source gives them in different places.

As usually defined, the EC50 is the concentration giving half of the maximal effect.

Experiment [1] has as its system rats. The method, then:
Rats were not heparinised so that effects of thrombin will be contributory to observed arrhythmias.
Rats were anaesthetised with pentobarbitone (60 mg/Kg IP) and artificially ventilated with room air. The chests were opened via the forth intercostal space, and the heart exposed. A 4.0 suture was placed around the left coronary artery and then passed through a guided polyethylene cannula. The thorax was closed leaving the threaded cannula outside the chest. The right carotid artery was cannulated for recording of arterial blood pressure. After stabilisation for 20-30 minutes, the left coronary artery was ligated by pulling the ends of the ligature through the tube and securing them by clamping the tube together with the threads. The ischaemic period was 10 minutes followed by reperfusion. Arterial blood pressure and a lead II ECG was recorded 3 minutes before and during ischaemia, and for the first 5 minutes of reperfusion. […] The size of the ischaemic area was determined at the end of the experiment by the dye method. […] Gentamicin was infused at a dose of 2.5-10 mg/Kg/min prior to initiation of ischaemia and maintained throughout the protocol.

Experiment [2] concerns Ins(1,4,5)P3 release. In words: Ins(1,4,5)P3 mass in isolated perfused rat hearts, 2 min reperfusion after 20 min global ischaemia (competitive binding assay). Particulars: for Ins(1,4,5)P3 mass: 2 min reperfusion after 20 min global ischaemia, control 200 ± 18. The method, then: (§1) Adult male sprague dawley rats 250-300 g were used. Where indicated, rats were treated with reserpine (5 mg/kg I.P. for 18 hrs prior to killing) to deplete endogenous noradrenaline stores.. Rats were heparinized 1 U/g I.P. 30 minutes prior to killing by decapitation. Hearts were rapidly excised and immediately chilled in ice-cold saline. Under ice-cold solution, hearts were cannulated via the ascending aorta as described by Langendorff and perfused retrogradely at a rate of 5 ml/min with HEPES-buffered Krebs solution equilibrated with 5%CO2 -95%O2 at 37° C. Initial perfusion was in a non-recirculating manner to remove internal blood. Hearts were allowed to warm up gradually and, when free of internal blood, transferred to a 37° C. water-jacketed organ bath containing carbogenated Krebs medium, and perfusion continued in a recirculating manner. Following a 15 minute equilibration period, hearts were labelled with [^3 H]-inositol, 2 μCi/ml for 2 h. Hearts were monitored throughout the labelling period for strong rhythmic beating.
(§2) Following labelling, the [^3 H]-inositol-containing medium was removed, and replaced with Krebs medium containing propranolol (10^-6 M) and lithium chloride (50 mM) to block β-adrenergic receptors and to inhibit InsP metabolism by InsP 1'-phosphatase respectively (20). Hearts were perfused with propranolol, LiCi solution for 10 minutes prior to ischaemia. Antagonists, when administered, were included in this 10 minute preincubation. Normothermic global ischaemia was induced by terminating perfusion for various times up to 30 minutes. Reperfusion was examined following a 20 minute ischaemic period by resuming perfusion at 5 ml/min. Reactions were terminated by freezing hearts in liquid N2 following excision at the atrioventricular junction. Frozen ventricles were weighed and inositol phosphates extracted as described below.
(§3) Inositol phosphates were extracted from ventricle samples in 3.5 ml ice-cold 5% trichloroacetic acid (TCA), 2.5 mM EDTA, 5 mM phytate solution, as described previously (21). Briefly, ventricles were homogenised with two 10 second passes of a "Polytron" homogenizer separated by 15 second periods on ice. Samples were homogenised further using a Potter-Elvejheim homogeniser followed by brief sonication. Homogenised samples were centrifuged (5000 rpm, 10 min, 4° C.) to remove TCA insoluble material. Supernatants were collected, and the remaining pellet re-extracted in 1.5 ml TCA, EDTA, phytate. Supernatants were pooled and freon, tri-n-ocylamine (1:1 v/v 0.75 ml:1 ml TCA solution) was added, mixed thoroughly, and phases separated by low speed centrifugation (2000 rpm, 10 min 4° C.). The resultant aqueous phase, containing inositol phosphates was collected and treated with proteinase K (50 μg/ml, 2 hr, 50° C.). This process was necessary to preserve the chromatography column. Treated samples were passed through a 1 ml Dowex-50 column (4% cross-linked 4-400 mesh size) and eluted with 1 ml water (22). Urea (0.05 M final) was added (23) and samples lyophilized prior to high performance liquid chromatography (HPLC) analysis. Recovery of inositol phosphates using this method was greater than 95% for each isomer, as estimated by addition of [^3 H]-labelled standards to extractions of unlabelled hearts.
Mass of Ins(1,4,5)P3 was measured using a competitive binding assay (Amersham TRK 1000) essentially as described previously (26). Ventricle samples were prepared as described above except for the omission of [^3 H]-label during the 2 hr perfusion of hearts prior to ischaemia, and for the use of 5 mm ATP instead of phytate in the extraction procedure.
Protein concentration was determined in aliquots of TCA pellet following InsP extraction using a modified Lowry method with Bovine Serum Albumin as a standard.
Values presented are mean ±SEM, for n=4 unless otherwise stated. Statistical analysis of results involved Students' unpaired "t-test" for all InsP data.

The test system of experiment [3] is hearts from reserpinized rats. The experiment is described as follows: Arrhythmic effect of thrombin under reperfusion conditions, perfused hearts from reserpinized rats. Details: species or system rat. Particulars: reserpinized hearts. On the procedure: (§4) A model of in situ perfused rat hearts subjected to 20 minutes coronary artery occlusion to induce ischaemia, followed by reperfusion was used to investigate reperfusion-induced arrhythmias.
(§5) Rats (250-300 g) were anaesthetised (pentobarbitone 60 mg/kg, I.P.) and heparinised (200 U/rat I.V.) The thorax was then opened and a metal cannula (ID 1 mm) inserted and tied into the ascending aorta, to commence Langendorff perfusion in situ (31). The interval from opening the chest to commencing heart perfusion was between 50 and 70 seconds. The perfusate was Krebs buffer, with coronary flow controlled by a Ismatac peristaltic pump at a rate of 5 ml/g heart weight/min for the non-ischaemic perfusion. At this flow rate the coronary perfusion pressure was between 32-38 mmHg, measured by pressure transducer (Gould Statham model p23) connected to the sidearm of the perfusion line. Following aortic cancellation, pulmonary vessels were tied off. In some preparations, ventricular pressure was measured by inserting a Millar micro-tip transducer catheter into the left ventricular cavity via the apex. All parameters--coronary perfusion pressure, ventricular pressure, and epicardial ECG, were constantly recorded on a Grass model 7 polygraph. Two hearts were perfused and simultaneously studied.
(§6) A silk suture (4.0) was positioned loosely around the left coronary artery 2-3 mm from its origin. Two silk releasing rings were placed around the suture for subsequent release of occlusion. Successful occlusion of the artery, inducing regional ischaemia, was indicated by increases in coronary perfusion pressure of at least 30%. Perfusion pressure was adjusted to non-ischaemic perfusion levels during the ischaemic period.
(§7) Drugs were added to the perfusion via a Harvard Model 22 pump. The drug flow was less than 1% of perfusion flow to ensure constant perfusate parameters. Unless mentioned otherwise, the drugs were present 10 minutes before, and during the entire ischaemic and reperfusion periods.
(§8) Heart preparations were allowed to stabilise for at least 20 minutes prior to commencing studies. Following 10 minute drug incubation, the left coronary artery was ligated to induce local ischaemia, for a period of 20 minutes. At the end of this ischaemic period, the ligature was released and hearts perfused at pre-ischaemic flow for a period of 5 minutes. Ventricular arrhythmias, occurring during ischaemia or during the first 2 minutes of reperfusion were defined according to the Lambeth Conventions (32).
The finding that thrombin directly stimulated release of Ins(1,4,5)P3 in heart indicates the possibility that thrombin might cause arrhythmias directly via this mechanism. Experiments were performed using hearts from reserpinized rats so that arrhythmic events initiated by noradrenaline were eliminated. Reperfusion arrhythmias were not observed in hearts from reserpinized animals. […] Furthermore, these arrhythmias were inhibited by gentamicin, indicating a relationship to release of Ins(1,4,5)P3 (Table 2).

For experiment [4], the system named is PI-PLC heart rep. The experiment is described as follows: Inhibition of PI-PLC in hearts under reperfusion conditions. Details: species or system rat. The method, then: as §1, §2
Mass of Ins(1,4,5)P3 was measured using a competitive binding assay (Amersham TRK 1000) essentially as described previously (26). […]

Experiment [5] concerns in situ perfused rat hearts. The following applies: for Reperfusion-induced arrhythmias VF % incidence / Reperfusion-induced arrhythmias VT % incidence: control 83; for arrhythmias occurring during the ischaemic phase: at the higher concentrations. On the procedure:
as §4, §5, §6, §7, §8
Incidence of arrhythmias was analysed using a .chi.^2 test, with n≥8 for each group.

Experiment [6] concerns PI-PLC kidney me. The following applies: membrane enzyme; from the literature (35); cited from earlier work.
Experiment [7] has as its system Ins(1,4,5)P3 release. In words: Thrombin-stimulated release of Ins(1,4,5)P3 in heart tissue. Particulars: at concentrations similar to those inhibiting the noradrenaline response under reperfusion.
Experiment [8] deals with PI-PLC kidney cy. The following applies: cytosolic enzyme; from the literature (35); cited from earlier work.
Experiment [9] has as its system PC-PLD brain. The following applies: read-out: average EC50 PC-PLD brain; from the literature (35); cited from earlier work.
The test system of experiment [10] is inositol phosphate accumulation in heart tissue. In words: Inositol phosphate accumulation in healthy (normoxic) heart tissue. Details: species or system rat. On the procedure:
as §1, §3
Inositol phosphates were separated by an anion-exchange HPLC system using a Whatman Partisil 10μ SAX column in a Waters Radial Compression Unit, employing a complex ammonium phosphate gradient, pH 3.8 from 0-2 M as described previously (24). Inositol phosphates were detected and quantitated using an on-line […] (model CR, Radiomatic Instruments) All peaks were identified by comparison with commercial standards. Nucleotide standards AMP, ADP, and ATP were run with samples to assess column performance.

In experiment [11] the test system is isolated neonatal cardiomyocytes. In words: Inositol phosphate accumulation in isolated neonatal cardiomyocytes. The format is cell-based.

As for gentamicin, the “size of ischaemic area vs control animals” value in [1] (dye method, 2.5-10 mg/Kg/min) is recorded as “no difference”. The “arrhythmias occurring under ischaemic conditions in vivo” value in experiment [1] (infused 2.5-10 mg/Kg/min) is “effective”. Moreover, the “development of reperfusion arrhythmias in vivo” value in experiment [1] (infused 2.5-10 mg/Kg/min) is recorded as “inhibited”. Also, in [1] (infused 2.5-10 mg/Kg/min, 10 min occlusion then reperfusion, n 10, control 68), the “VF% reperfusion arrhythmias in vivo” value amounted to 0%. For the same compound, the “VT% reperfusion arrhythmias in vivo” value in [1] (infused 2.5-10 mg/Kg/min, 10 min occlusion then reperfusion, n 10, control 100) worked out at 30%. For the same compound, the “potency of inhibition of reperfusion-induced Ins(1,4,5)P3 release relative to neomycin” value in experiment [2] is “more potent inhibitors”. The “Ins(1,4,5)P3 mass” value stood at 145 ± 2 pmol/mg protein in experiment [2] (0.015 mM), 136 ± 22 pmol/mg protein in experiment [2] (0.15 mM) and 102 ± 17 pmol/mg protein in experiment [2] (1.5 mM). In experiment [3], the thrombin-induced reperfusion arrhythmias result is “inhibited”. Also, the EC50 is 15 µM in [4], 0.5 mM in [6] and 130 µM in [8]. In experiment [5], the “effect on reperfusion arrhythmias” value is “inhibited”. The “rank of potency against reperfusion arrhythmias” value in experiment [5] is “most potent agent tested”. Besides, the entries for the “Reperfusion-induced arrhythmias VF % incidence” value in experiment [5] (0.015 mM), in experiment [5] (0.15 mM) and in experiment [5] (1.5 mM) were 25%, 27% and 8%, respectively. Moreover, the “Reperfusion-induced arrhythmias VT % incidence” value stood at 58% in experiment [5] (0.015 mM), 27% in experiment [5] (0.15 mM) and 17% in experiment [5] (1.5 mM). The “arrhythmias occurring during the ischaemic phase” value in [5] is on record as “partial inhibition”. The “inhibition of thrombin-stimulated release of Ins(1,4,5)P3” value in [7] is “inhibited”.
Regarding `[H]/N=C(/N)N[C@H]1[C@H](O)[C@@H](O)[C@H](O[C@@H]2O[C@@H](C)[C@](O)(C=O)[C@H]2O[C@@H]2O[C@@H](CO)[C@H](O)[C@@H](O)[C@@H]2NC)[C@@H](N/C(N)=N\[H])[C@@H]1O` [streptomycin], the “potency of inhibition of reperfusion-induced Ins(1,4,5)P3 release relative to neomycin” value in experiment [2] is reported as “more potent inhibitors”. Besides, the “Ins(1,4,5)P3 mass” value was 201 ± 16 pmol/mg protein in experiment [2] (0.015 mM), 167 ± 5 pmol/mg protein in experiment [2] (0.15 mM) and 94 ± 11 pmol/mg protein in experiment [2] (1.5 mM). In addition, the concentration for a half-maximal effect (EC50) in experiment [4] is 150 µM; in [6], 2.85 mM; in [9], 125 µM; in experiment [8], 380 µM. In [5], the “effect on reperfusion arrhythmias” value is “inhibited”. Besides, the “Reperfusion-induced arrhythmias VF % incidence” value is 27% in [5] (0.015 mM), 6% in experiment [5] (0.15 mM) and 27% in [5] (1.5 mM). For the same compound, the results for the “Reperfusion-induced arrhythmias VT % incidence” value in [5] (0.015 mM), in experiment [5] (0.15 mM) and in experiment [5] (1.5 mM) were 45%, 25% and 45%, respectively. Besides, the “arrhythmias occurring during the ischaemic phase” value in experiment [5] is “partial inhibition”.
As for `COc1ccc2c(c1)CC[C@@H]1[C@@H]2CC[C@]2(C)[C@@H](NCCCCCCN3C(=O)C=CC3=O)CC[C@@H]12` [U-73122], the anti-arrhythmic activity entry in experiment [5] is given as “without anti-arrhythmic activity”. Moreover, the VF% in [5] (10^-6 M, n 12, control 63) is 61%. In experiment [5] (10^-6 M, n 12, control 100), this compound yielded a VT% of 88%. The “release of Ins(1,4,5)P3 in intact heart preparations” value in experiment [10] is listed as “did not inhibit”. In addition, the “inhibition of accumulation of inositol phosphates” value in experiment [10] (heart tissue under noradrenaline stimulation) is given as “did not inhibit”; in experiment [11], “fully effective inhibitor”.
